# Reference: ChEMBL document CHEMBL1201862, “PubChem BioAssay data set” (2004)
# Activity calls are given as the source filed them.
# What was measured:
# [1] = biological target: T1, Leucine aminopeptidase (Plasmodium falciparum 3D7, UniProt Q8IL11); assay: P. falciparum M17LAP inhibitors, primary screen, biochemical, fluorogenic H-Leu-NHMec substrate, 1536-well (AID 1619); type: functional
# T1 sequence (Q8IL11 whole entry): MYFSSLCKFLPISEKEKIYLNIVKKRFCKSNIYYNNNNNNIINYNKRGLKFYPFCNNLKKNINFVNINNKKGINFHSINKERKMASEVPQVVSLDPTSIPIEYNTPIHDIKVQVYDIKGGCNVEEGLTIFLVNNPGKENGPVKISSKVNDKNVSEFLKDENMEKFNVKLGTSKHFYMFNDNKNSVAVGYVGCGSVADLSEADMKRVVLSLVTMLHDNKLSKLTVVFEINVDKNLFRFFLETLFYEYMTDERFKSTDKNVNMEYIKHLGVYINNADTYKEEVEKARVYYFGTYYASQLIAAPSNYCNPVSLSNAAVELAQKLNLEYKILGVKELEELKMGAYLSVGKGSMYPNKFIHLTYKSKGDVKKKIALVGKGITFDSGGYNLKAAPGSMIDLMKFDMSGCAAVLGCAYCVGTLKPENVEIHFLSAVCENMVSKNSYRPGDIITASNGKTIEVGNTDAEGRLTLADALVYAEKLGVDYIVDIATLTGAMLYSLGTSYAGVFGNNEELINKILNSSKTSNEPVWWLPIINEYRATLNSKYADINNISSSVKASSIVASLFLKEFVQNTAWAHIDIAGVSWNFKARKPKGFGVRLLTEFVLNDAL
# [2] = biological target: Heat shock protein HSP 90-alpha (Homo sapiens, UniProt P07900); assay: Luminescence-based dose response biochemical high throughput screening assay for inhibitors of the Heat Shock Protein 90 (HSP90). [Related pubchem assays: 1831 (Summary AID.), 1846 (Confirmation screen.), 1789 (Primary screen.)]
# [3] = biological target: Glutathione-S-transferase (Schistosoma japonicum, UniProt Q26513); assay: biotin-GST/anti-GST TR-FRET signal inhibitors, dose response, artefact control for Vif-APOBEC3G degradation inhibitor project, biochemical (AID 1117362); type: functional
# [4] = biological target: Keap1/Nrf2 (Homo sapiens, UniProt Q14145); assay: Keap1-Nrf2 protein-protein interaction inhibitors, dose response, biochemical, fluorescence polarization, cherry-picked samples (AID 588683)
# [5] = Mtb BioA inhibitors by displacement, dose response, biochemical, coupled fluorescence displacement, 20-point, dry powder (AID 743357); type: functional
# [6] = Vero cell cytotoxicity, dose response, cytotoxicity control for Vif-APOBEC3G degradation inhibitor project, Vero cells (AID 1117358); type: functional; details: Human immunodeficiency virus 1, Vero
# [7] = biological target: Sphingosine 1-phosphate receptor 2 (Homo sapiens, UniProt O95136); assay: Dose Response Cell Based Assay for Agonists of the S1P2 Receptor. [Related pubchem assays: 729, 736, 843 ]; type: functional
# [8] = Jurkat T cell cytotoxicity, dose response, cytotoxicity control for P. falciparum gametocyte viability project, luminescence (AID 1117277); type: functional, cell-based;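 further: potency reflects loss of cellular ATP meaning fewer viable cells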
# [9] = P. falciparum late gametocyte killing, dose response, luminescence (AID 1117278); type: functional, cell-based;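 further: gametocytes exposed to compound for 24 hours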
# [10] = Late stage results for the probe development effort to identify inhibitors of Plasmodium falciparum gametocytes: Luminescence-based cell-based high throughput dose response assay to identify inhibitors of viability of late stage Plasmodium falciparum gametocytes.; type: functional
# [11] = tested on: Streptococcus; assay: Group A Streptococcus viability loss, dose response, counter-screen for streptokinase expression inhibitor project, luminescence, BacTiterGlo (AID 1915); type: functional, organism-based;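 further: potency for reduction of bacterial viability or growth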
# [12] = biological target: T2, Streptokinase A (Streptococcus pyogenes serotype M1, UniProt P10520); assay: S. pyogenes streptokinase expression inhibitors, potency, dose response, plasminogen activation absorbance, OD405 (AID 1914); type: functional, Streptococcus pyogenes M1 GAS;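 further: secreted streptokinase activity via plasminogen activation per viability signal from cell pellet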
# T2 sequence (P10520 whole entry): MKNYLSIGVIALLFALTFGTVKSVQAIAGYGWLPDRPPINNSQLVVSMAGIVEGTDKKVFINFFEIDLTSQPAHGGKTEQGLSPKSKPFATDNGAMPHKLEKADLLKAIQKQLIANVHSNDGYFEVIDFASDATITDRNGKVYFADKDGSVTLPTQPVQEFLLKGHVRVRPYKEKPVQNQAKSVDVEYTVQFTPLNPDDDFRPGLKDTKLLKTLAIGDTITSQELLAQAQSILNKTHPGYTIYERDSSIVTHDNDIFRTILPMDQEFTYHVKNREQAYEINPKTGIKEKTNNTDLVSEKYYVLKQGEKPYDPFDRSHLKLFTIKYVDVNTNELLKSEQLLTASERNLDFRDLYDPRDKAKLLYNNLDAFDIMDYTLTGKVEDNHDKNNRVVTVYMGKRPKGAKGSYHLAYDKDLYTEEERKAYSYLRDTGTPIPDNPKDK
# [13] = tested on: Streptococcus sp. 'group A'; assay: growth inhibition of control SK(-) GAS strain, dose response, counter-screen for streptokinase expression inhibitor project, luminescence, kanamycin, BacTiterGlo, confirmation (AID 1900); type: functional, organism-based
# Sequence of Glutathione-S-transferase (Q26513 whole entry): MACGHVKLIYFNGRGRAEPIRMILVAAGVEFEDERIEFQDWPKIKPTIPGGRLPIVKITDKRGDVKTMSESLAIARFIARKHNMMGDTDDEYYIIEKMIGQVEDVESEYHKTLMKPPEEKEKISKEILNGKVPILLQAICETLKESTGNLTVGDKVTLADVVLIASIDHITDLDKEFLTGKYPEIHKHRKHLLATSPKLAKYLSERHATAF
# Sequence of Keap1/Nrf2 (Q16236 whole entry): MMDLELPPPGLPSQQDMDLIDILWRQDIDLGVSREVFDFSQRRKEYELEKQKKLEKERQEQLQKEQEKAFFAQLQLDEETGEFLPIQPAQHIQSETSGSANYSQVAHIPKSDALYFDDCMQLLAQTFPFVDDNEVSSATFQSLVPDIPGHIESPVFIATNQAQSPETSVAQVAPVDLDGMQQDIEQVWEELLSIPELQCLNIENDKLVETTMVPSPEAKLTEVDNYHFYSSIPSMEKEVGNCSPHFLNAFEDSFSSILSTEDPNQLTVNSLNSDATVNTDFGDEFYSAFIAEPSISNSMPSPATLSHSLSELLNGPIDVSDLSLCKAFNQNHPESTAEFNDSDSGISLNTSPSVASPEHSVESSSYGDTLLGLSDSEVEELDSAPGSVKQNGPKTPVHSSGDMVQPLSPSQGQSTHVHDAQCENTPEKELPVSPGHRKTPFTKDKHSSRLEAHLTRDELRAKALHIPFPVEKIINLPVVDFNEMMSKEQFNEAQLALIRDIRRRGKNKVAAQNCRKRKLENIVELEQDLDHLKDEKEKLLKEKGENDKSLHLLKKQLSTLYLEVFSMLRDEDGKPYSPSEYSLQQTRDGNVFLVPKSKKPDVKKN
# Sequence of Keap1/Nrf2 (Q14145 whole entry): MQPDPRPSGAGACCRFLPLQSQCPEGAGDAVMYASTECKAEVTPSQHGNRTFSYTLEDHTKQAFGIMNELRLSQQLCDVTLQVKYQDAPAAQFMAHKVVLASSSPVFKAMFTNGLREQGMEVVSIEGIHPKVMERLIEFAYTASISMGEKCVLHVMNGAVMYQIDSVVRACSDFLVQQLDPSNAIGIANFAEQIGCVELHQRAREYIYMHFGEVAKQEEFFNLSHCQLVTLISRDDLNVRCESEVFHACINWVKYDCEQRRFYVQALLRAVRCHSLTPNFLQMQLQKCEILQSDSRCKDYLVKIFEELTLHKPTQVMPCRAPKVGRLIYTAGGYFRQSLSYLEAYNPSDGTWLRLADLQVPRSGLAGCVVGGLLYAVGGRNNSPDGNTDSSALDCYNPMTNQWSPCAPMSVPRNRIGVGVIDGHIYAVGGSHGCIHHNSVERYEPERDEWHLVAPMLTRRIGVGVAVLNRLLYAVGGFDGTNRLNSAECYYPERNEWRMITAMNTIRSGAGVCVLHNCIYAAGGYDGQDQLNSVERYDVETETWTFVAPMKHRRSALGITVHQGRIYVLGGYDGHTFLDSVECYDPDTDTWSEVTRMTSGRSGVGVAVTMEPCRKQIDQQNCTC
# Sequence of Sphingosine 1-phosphate receptor 2 (O95136 whole entry): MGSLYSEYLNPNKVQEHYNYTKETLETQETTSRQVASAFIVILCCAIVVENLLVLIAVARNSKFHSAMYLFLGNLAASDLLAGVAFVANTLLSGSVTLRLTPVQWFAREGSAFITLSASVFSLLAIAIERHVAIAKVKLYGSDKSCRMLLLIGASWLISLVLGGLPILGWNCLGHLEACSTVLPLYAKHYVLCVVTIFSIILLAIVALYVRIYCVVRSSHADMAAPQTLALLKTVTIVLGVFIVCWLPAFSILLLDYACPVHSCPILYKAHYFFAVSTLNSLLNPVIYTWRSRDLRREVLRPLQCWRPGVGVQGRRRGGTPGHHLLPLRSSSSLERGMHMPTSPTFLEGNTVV
smiles,measurement,setting,value
COc1cc(/C=N/Nc2ccc(Cl)c(C(=O)O)c2)ccc1OC(=O)c1ccco1,IC50,[1],48.8 µM (active)
same,IC50,[2],0.792 µM (active)
COC(=O)C1=COC(C)C2CN3CCc4c([nH]c5ccccc45)C3CC12 (stereo not drawn),IC50,[3],> 100 µM (active)
same,AC50,[4],> 52 µM (inactive)
COc1cc2c(cc1C(=O)N1CCN(c3ccc(C(C)=O)cc3)CC1)OCO2,AC50,[5],13.7 µM (active)
O=C(Nc1cccc(Cl)c1)C1=Cc2cc(Cl)ccc2OC1,CC50,[6],> 40 µM (active)
NC(=O)c1ccc(NC(=O)C2CCCO2)cc1 (stereo not drawn),EC50,[7],> 50 µM (not active)
CC(C)OC(=O)c1c(NC(=O)c2ccco2)sc2c1CCCC2,IC50,[8],> 83.2 µM (inactive)
same,IC50,[9],> 109 µM (inactive)
O=C(NC1=NCCS1)c1cc(-c2ccccc2)nn1-c1ccccc1,IC50,[10],> 37.2 µM (inactive)
same,EC50,[11],> 150 µM (not active)
same,EC50,[12],34.2 µM (active)
same,EC50,[13],> 150 µM (not active)
